# Columns and labels:
# GALAP (Galium) = experiment: Postemergence herbicidal evaluation; format: in vivo, Galium aparine; conditions: postemergence
# Outline: (§1)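 Compound is applied as a foliar spray to seedlings about two weeks old, formulated in equal parts acetone and water with 0.5% TWEEN 20 and delivered at 40 psi to give about 0.0156–0.500 kg per hectare. Injury is rated visually 0–9 after four to five weeks.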
# [1] = system: IPOHE (Morningglory, Ivyleaf); experiment: Postemergence herbicidal evaluation; format: in vivo, Ipomoea hederacea; conditions: postemergence
# Outline: as §1
# SETVI (Foxtail, Green) [2] = experiment: Postemergence herbicidal evaluation; format: in vivo, Setaria viridis; conditions: postemergence
# Outline: as §1
# [3] = system: TRZAWR (Wheat, Winter, cv Riband); experiment: Postemergence herbicidal evaluation; format: in vivo, Triticum aestivum; conditions: postemergence
# Outline: as §1
# ABUTH (Velvetleaf) = experiment: Preemergence herbicidal evaluation; format: in vivo, Abutilon theophrasti; conditions: rated 4-5 weeks after treatment, rating scale 0-9
# Outline: (§2)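 In this greenhouse assay, monocot and dicot seeds are planted in soil and treated prior to emergence with an aqueous acetone spray (about 0.0156-0.500 kg/ha). Plants are assessed visually against control on a 0-9 scale after 4-5 weeks.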
# [4] = system: IPOHE (Morningglory, Ivyleaf); experiment: Preemergence herbicidal evaluation; format: in vivo, Ipomoea hederacea; conditions: rated 4-5 weeks after treatment, rating scale 0-9
# Outline: as §2
# ECHCG (Barnyardgrass) = experiment: Preemergence herbicidal evaluation; format: in vivo, Echinochloa crus-galli; conditions: rated 4-5 weeks after treatment, rating scale 0-9
# Outline: as §2
# SETVI (Foxtail, Green) [5] = experiment: Preemergence herbicidal evaluation; format: in vivo, Setaria viridis; conditions: rated 4-5 weeks after treatment, rating scale 0-9
# Outline: as §2
# ZEAMX (Corn, Field) = experiment: Preemergence herbicidal evaluation; format: in vivo, Zea mays; conditions: rated 4-5 weeks after treatment, rating scale 0-9
# Outline: as §2
# [6] = system: ECHORC (Watergrass (Calif.)); experiment: Preemergence weed control under flooded paddy conditions; format: in vivo, Echinochloa oryzoides; conditions: rated 3-4 weeks after treatment
# Outline: (§3)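 Silt loam, seeds in top 0.5 cm; flood held 1.5-3 cm; test cpd as acetone/water 50/50 into flood water, ~0.0313-0.500 kg/ha a.i.; greenhouse 3-4 wk; visual 0-9 score vs control.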
# CYPIR (Rice Flatsedge) = experiment: as above; format: in vivo, Cyperus iria; conditions: rated 3-4 weeks after treatment
# Outline: as §3
# MOOVA (Monochoria) = experiment: as above; format: in vivo, Monochoria vaginalis; conditions: rated 3-4 weeks after treatment
# Outline: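 Visual injury scored 0-9 against control three to four weeks post-treatment, greenhouse-grown. Application: acetone/water (50/50) solutions dosed directly into flood water (1.5-3 cm over silt loam, planted top 0.5 cm), roughly 0.0313 to 0.500 kg/ha active ingredient.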
smiles,measurement,setting,value
"COc1cccc(CN2C(=O)CSC2=Nc2cc(-n3c(=O)cc(C(F)(F)F)n(C)c3=O)c(F)cc2Cl)c1 [Compound 137, 3-{4-Chloro-2-fluoro-5-{[3-(m-methoxybenzyl)-4-oxo-2-thiazolidinylidene]amino}phenyl}-1-methyl-6-(trifluoromethyl)-2,4(1H,3H)-pyrimidinedione]",herbicidal rating GALAP,GALAP (Galium); rate 0.0156 kg/ha,1.0
same,herbicidal rating GALAP,GALAP (Galium); rate 0.0313 kg/ha,1.0
same,herbicidal rating GALAP,GALAP (Galium); rate 0.0625 kg/ha,3.0
same,herbicidal rating IPOHE,[1]; rate 0.0156 kg/ha,9.0
same,herbicidal rating IPOHE,[1]; rate 0.0313 kg/ha,9.0
same,herbicidal rating IPOHE,[1]; rate 0.0625 kg/ha,9.0
same,herbicidal rating SETVI,"SETVI (Foxtail, Green) [2]; rate 0.0156 kg/ha",1.0
same,herbicidal rating SETVI,"SETVI (Foxtail, Green) [2]; rate 0.0313 kg/ha",1.0
same,herbicidal rating SETVI,"SETVI (Foxtail, Green) [2]; rate 0.0625 kg/ha",3.0
same,herbicidal rating TRZAWR,[3]; rate 0.0156 kg/ha,3.5
same,herbicidal rating TRZAWR,[3]; rate 0.0313 kg/ha,3.0
same,herbicidal rating TRZAWR,[3]; rate 0.0625 kg/ha,4.5
same,Preemergence herbicidal rating ABUTH,ABUTH (Velvetleaf); rate 0.0625 kg/ha,0.0
same,Preemergence herbicidal rating ABUTH,ABUTH (Velvetleaf); rate 0.1250 kg/ha,0.0
same,Preemergence herbicidal rating ABUTH,ABUTH (Velvetleaf); rate 0.2500 kg/ha,9.0
same,Preemergence herbicidal rating IPOHE,[4]; rate 0.0625 kg/ha,0.0
same,Preemergence herbicidal rating IPOHE,[4]; rate 0.1250 kg/ha,0.0
same,Preemergence herbicidal rating IPOHE,[4]; rate 0.2500 kg/ha,1.0
same,Preemergence herbicidal rating ECHCG,ECHCG (Barnyardgrass); rate 0.0625 kg/ha,0.0
same,Preemergence herbicidal rating ECHCG,ECHCG (Barnyardgrass); rate 0.1250 kg/ha,0.0
same,Preemergence herbicidal rating ECHCG,ECHCG (Barnyardgrass); rate 0.2500 kg/ha,0.0
same,Preemergence herbicidal rating SETVI,"SETVI (Foxtail, Green) [5]; rate 0.0625 kg/ha",0.0
same,Preemergence herbicidal rating SETVI,"SETVI (Foxtail, Green) [5]; rate 0.1250 kg/ha",0.0
same,Preemergence herbicidal rating SETVI,"SETVI (Foxtail, Green) [5]; rate 0.2500 kg/ha",2.0
same,Preemergence herbicidal rating ZEAMX,"ZEAMX (Corn, Field); rate 0.0625 kg/ha",0.0
same,Preemergence herbicidal rating ZEAMX,"ZEAMX (Corn, Field); rate 0.1250 kg/ha",0.0
same,Preemergence herbicidal rating ZEAMX,"ZEAMX (Corn, Field); rate 0.2500 kg/ha",0.0
same,"herbicidal effect rating, ECHORC",[6]; 0.0313 kg/ha,3.0
same,"herbicidal effect rating, ECHORC",[6]; 0.0625 kg/ha,3.0
same,"herbicidal effect rating, ECHORC",[6]; 0.1250 kg/ha,3.0
same,"herbicidal effect rating, ECHORC",[6]; 0.2500 kg/ha,5.0
same,"herbicidal effect rating, CYPIR",CYPIR (Rice Flatsedge); 0.0313 kg/ha,3.0
same,"herbicidal effect rating, CYPIR",CYPIR (Rice Flatsedge); 0.0625 kg/ha,2.0
same,"herbicidal effect rating, CYPIR",CYPIR (Rice Flatsedge); 0.1250 kg/ha,2.0
same,"herbicidal effect rating, CYPIR",CYPIR (Rice Flatsedge); 0.2500 kg/ha,4.0
same,"herbicidal effect rating, MOOVA",MOOVA (Monochoria); 0.0313 kg/ha,4.0
same,"herbicidal effect rating, MOOVA",MOOVA (Monochoria); 0.0625 kg/ha,5.0
same,"herbicidal effect rating, MOOVA",MOOVA (Monochoria); 0.1250 kg/ha,5.0
same,"herbicidal effect rating, MOOVA",MOOVA (Monochoria); 0.2500 kg/ha,8.0
"Cn1c(C(F)(F)F)cc(=O)n(-c2cc(N=C3SCC(=O)N3Cc3ccc(Cl)cc3)c(Cl)cc2F)c1=O [Compound 145, 3-{4-Chloro-5-{[3-(p-chlorobenzyl)-4-oxo-2-thiazolidinylidene]amino}-2-fluorophenyl}-1-methyl-6-(trifluoromethyl)-2,4(1H,3H)-pyrimidinedione]",herbicidal rating GALAP,GALAP (Galium); rate 0.0156 kg/ha,1.0
same,herbicidal rating GALAP,GALAP (Galium); rate 0.0313 kg/ha,4.0
same,herbicidal rating GALAP,GALAP (Galium); rate 0.0625 kg/ha,7.0
same,herbicidal rating IPOHE,[1]; rate 0.0156 kg/ha,9.0
same,herbicidal rating IPOHE,[1]; rate 0.0313 kg/ha,9.0
same,herbicidal rating IPOHE,[1]; rate 0.0625 kg/ha,9.0
same,herbicidal rating SETVI,"SETVI (Foxtail, Green) [2]; rate 0.0156 kg/ha",1.0
same,herbicidal rating SETVI,"SETVI (Foxtail, Green) [2]; rate 0.0313 kg/ha",3.0
same,herbicidal rating SETVI,"SETVI (Foxtail, Green) [2]; rate 0.0625 kg/ha",5.0
same,herbicidal rating TRZAWR,[3]; rate 0.0156 kg/ha,3.0
same,herbicidal rating TRZAWR,[3]; rate 0.0313 kg/ha,3.0
same,herbicidal rating TRZAWR,[3]; rate 0.0625 kg/ha,4.0
same,Preemergence herbicidal rating ABUTH,ABUTH (Velvetleaf); rate 0.0156 kg/ha,0.0
same,Preemergence herbicidal rating ABUTH,ABUTH (Velvetleaf); rate 0.0313 kg/ha,2.0
same,Preemergence herbicidal rating ABUTH,ABUTH (Velvetleaf); rate 0.0625 kg/ha,3.0
same,Preemergence herbicidal rating ABUTH,ABUTH (Velvetleaf); rate 0.1250 kg/ha,9.0
same,Preemergence herbicidal rating ABUTH,ABUTH (Velvetleaf); rate 0.2500 kg/ha,6.0
same,Preemergence herbicidal rating IPOHE,[4]; rate 0.0156 kg/ha,0.0
same,Preemergence herbicidal rating IPOHE,[4]; rate 0.0313 kg/ha,0.0
same,Preemergence herbicidal rating IPOHE,[4]; rate 0.0625 kg/ha,0.0
same,Preemergence herbicidal rating IPOHE,[4]; rate 0.1250 kg/ha,7.0
same,Preemergence herbicidal rating IPOHE,[4]; rate 0.2500 kg/ha,5.0
same,Preemergence herbicidal rating ECHCG,ECHCG (Barnyardgrass); rate 0.0156 kg/ha,0.0
same,Preemergence herbicidal rating ECHCG,ECHCG (Barnyardgrass); rate 0.0313 kg/ha,0.0
same,Preemergence herbicidal rating ECHCG,ECHCG (Barnyardgrass); rate 0.0625 kg/ha,1.0
same,Preemergence herbicidal rating ECHCG,ECHCG (Barnyardgrass); rate 0.1250 kg/ha,1.0
same,Preemergence herbicidal rating ECHCG,ECHCG (Barnyardgrass); rate 0.2500 kg/ha,1.0
same,Preemergence herbicidal rating SETVI,"SETVI (Foxtail, Green) [5]; rate 0.0156 kg/ha",1.0
same,Preemergence herbicidal rating SETVI,"SETVI (Foxtail, Green) [5]; rate 0.0313 kg/ha",0.0
same,Preemergence herbicidal rating SETVI,"SETVI (Foxtail, Green) [5]; rate 0.0625 kg/ha",7.0
same,Preemergence herbicidal rating SETVI,"SETVI (Foxtail, Green) [5]; rate 0.1250 kg/ha",3.0
same,Preemergence herbicidal rating SETVI,"SETVI (Foxtail, Green) [5]; rate 0.2500 kg/ha",7.0
same,Preemergence herbicidal rating ZEAMX,"ZEAMX (Corn, Field); rate 0.0156 kg/ha",0.0
same,Preemergence herbicidal rating ZEAMX,"ZEAMX (Corn, Field); rate 0.0313 kg/ha",0.0
same,Preemergence herbicidal rating ZEAMX,"ZEAMX (Corn, Field); rate 0.0625 kg/ha",0.0
same,Preemergence herbicidal rating ZEAMX,"ZEAMX (Corn, Field); rate 0.1250 kg/ha",1.0
same,Preemergence herbicidal rating ZEAMX,"ZEAMX (Corn, Field); rate 0.2500 kg/ha",2.0
same,"herbicidal effect rating, ECHORC",[6]; 0.0313 kg/ha,6.0
same,"herbicidal effect rating, ECHORC",[6]; 0.0625 kg/ha,6.0
same,"herbicidal effect rating, ECHORC",[6]; 0.1250 kg/ha,7.0
same,"herbicidal effect rating, ECHORC",[6]; 0.2500 kg/ha,7.0
same,"herbicidal effect rating, CYPIR",CYPIR (Rice Flatsedge); 0.0313 kg/ha,4.0
same,"herbicidal effect rating, CYPIR",CYPIR (Rice Flatsedge); 0.0625 kg/ha,5.0
same,"herbicidal effect rating, CYPIR",CYPIR (Rice Flatsedge); 0.1250 kg/ha,7.0
same,"herbicidal effect rating, CYPIR",CYPIR (Rice Flatsedge); 0.2500 kg/ha,9.0
same,"herbicidal effect rating, MOOVA",MOOVA (Monochoria); 0.0313 kg/ha,4.0
same,"herbicidal effect rating, MOOVA",MOOVA (Monochoria); 0.0625 kg/ha,6.0
same,"herbicidal effect rating, MOOVA",MOOVA (Monochoria); 0.1250 kg/ha,9.0
same,"herbicidal effect rating, MOOVA",MOOVA (Monochoria); 0.2500 kg/ha,9.0
